The values below come from patent US20240368151A1, “NOVEL ERGOLINES AND METHODS OF TREATING MOOD DISORDERS” (priority 2021, published 2024).

For this experiment, the system named is C57BL/6 mice. Briefly: Marble burying test (MBT) in mice. The class given is in vivo, mouse. The conditions noted are these: SC, 30-minute period. Here is the method:
Compound 1 produced an anxiolytic-like effect in the marble burying test (MBT) in C57BL/6 mice (FIG. 3).
Animals. Adult male C57BL/6 mice, aged 8-10 weeks (body weight 20-25 g) were used in these experiments. Animals were housed under controlled temperatures and 12-hour light/dark cycles (lights on between 07:00-19:00 h), with ad libitum food and water. This study was carried out in strict accordance with the requirements of the Committee for the Purpose of Control and Supervision of Experiments on Animals (CPCSEA), India. All efforts were made to minimize suffering.
Drugs and Drug Administration. Compound 1 was synthesized as described above. Desipramine HCl was commercially obtained. The test compound, vehicle, and the positive control desipramine were administered subcutaneously (SC), with doses calculated based on the freebase. Normal saline was used as the vehicle. All compounds were administered at a volume of 10 mL/kg. All treatments were administered 30 minutes prior to the start of behavioral testing. Group size was n=9-10 per treatment.
Marble Burying Test (MBT). […] Mice were handled for about 2 min daily for the 3 days prior to the beginning of the experimental procedure. […] The total number of marbles buried were counted in three 10-minute time bins (total 30 minutes). […]

Each structure is given as a SMILES string.

Consider `CCCN1C[C@H](C(=O)N(CC)CC)C=C2c3cccc4[nH]cc(c34)C[C@H]21` [Compound 1, (6aR,9R)-N,N-diethyl-7-propyl-4,6,6a,7,8,9-hexahydroindolo[4,3-fg]quinoline-9-carboxamide], for which the “number of marbles buried compared to vehicle, in words” value is “reduced the number of marbles buried”.
